What was measured:
Assay type in all cases: biochemical
HDAC6 enzyme = target: T1, HDAC6 enzyme (Homo sapiens, UniProt Q9UBN7); experiment: HDAC6 enzyme inhibitory assay (HDAC-Glo I/II Assay kit); conditions: wells without enzyme = 100% inhibition, read-out: HDAC6 inhibitory rate (%) (1 μM)
T1 construct: transducing full length HDAC1 and HDAC6 genes into Sf-9 insect cells; GST; purchased SignalChem; host or cells: Sf-9 insect cells
T1 sequence (Q9UBN7 1-1215): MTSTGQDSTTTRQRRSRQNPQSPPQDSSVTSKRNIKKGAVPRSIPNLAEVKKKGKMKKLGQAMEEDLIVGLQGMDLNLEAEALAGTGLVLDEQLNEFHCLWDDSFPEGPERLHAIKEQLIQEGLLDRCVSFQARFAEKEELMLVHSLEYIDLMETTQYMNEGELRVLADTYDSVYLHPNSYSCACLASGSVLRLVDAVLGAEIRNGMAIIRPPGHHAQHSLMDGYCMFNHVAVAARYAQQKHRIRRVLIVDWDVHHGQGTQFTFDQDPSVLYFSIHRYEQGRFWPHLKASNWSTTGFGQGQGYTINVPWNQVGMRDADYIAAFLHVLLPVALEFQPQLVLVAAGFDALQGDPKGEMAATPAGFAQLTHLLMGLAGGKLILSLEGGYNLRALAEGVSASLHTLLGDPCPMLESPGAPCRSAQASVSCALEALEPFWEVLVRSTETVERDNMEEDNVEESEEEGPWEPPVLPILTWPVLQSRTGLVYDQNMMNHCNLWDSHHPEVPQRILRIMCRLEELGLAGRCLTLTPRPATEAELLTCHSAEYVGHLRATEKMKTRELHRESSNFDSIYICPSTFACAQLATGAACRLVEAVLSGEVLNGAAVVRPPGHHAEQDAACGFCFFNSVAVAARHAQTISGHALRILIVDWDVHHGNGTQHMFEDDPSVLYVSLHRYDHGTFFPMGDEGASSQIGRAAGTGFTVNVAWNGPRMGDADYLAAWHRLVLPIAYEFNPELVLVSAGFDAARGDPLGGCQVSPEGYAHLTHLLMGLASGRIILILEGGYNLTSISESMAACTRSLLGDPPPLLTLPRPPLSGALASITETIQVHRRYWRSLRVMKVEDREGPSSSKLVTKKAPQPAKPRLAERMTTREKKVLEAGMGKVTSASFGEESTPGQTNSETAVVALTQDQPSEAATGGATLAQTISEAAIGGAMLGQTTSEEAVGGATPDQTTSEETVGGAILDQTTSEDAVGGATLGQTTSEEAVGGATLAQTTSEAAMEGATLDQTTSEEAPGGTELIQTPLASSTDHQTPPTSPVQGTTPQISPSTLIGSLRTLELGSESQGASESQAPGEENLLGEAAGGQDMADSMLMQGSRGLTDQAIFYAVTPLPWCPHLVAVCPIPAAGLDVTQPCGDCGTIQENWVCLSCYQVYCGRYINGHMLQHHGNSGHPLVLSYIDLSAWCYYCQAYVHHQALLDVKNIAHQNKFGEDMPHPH
Experimental: (§1) HDAC1/6 Enzyme Inhibitory Assay
(§2) HDAC1 enzyme and HDAC6 enzyme each prepared by transducing full length HDAC1 and HDAC6 genes into Sf-9 insect cells and purifying by GST affinity column were purchased from SignalChem. Using these enzymes, HDAC1 and/or HDAC6 enzyme inhibitory activities of the compound of the present invention were evaluated. Enzymes were used after preserved at −70° C. HDAC1 or HDAC6 enzyme inhibitory activity of the compound of the present invention was measured using HDAC-Glo™ I/II Assay kit (Promega) according to the following experimental method. The test compound diluted with assay buffer (24 mM Tris-HCl (pH 7.5), 1 mM MgCl2, 0.35 mM KCl, 135 mM NaCl, 0.6 mM Glutathione, 0.01% Tween-20) was added to a 384-well plate by each 2 μL. Then, HDAC1 or HDAC6 enzyme solution diluted with assay buffer was added thereto by each 4 μL, and the plate was incubated at room temperature for 60 min. After incubated, HDAC substrate-Developer solution prepared according to Promega protocol attached to the assay kit was added to the 384-well plate by each 2 μL, and the enzyme reaction was started. After reacting at room temperature for 20 min, luminescence level was measured using plate reader Envision (PerkinElmer). The inhibitory activity of each compound was calculated as a relative activity value when luminescence level in wells without enzyme is considered as 100% inhibition.

HDAC1 enzyme = target: T2, HDAC1 enzyme (Homo sapiens, UniProt Q13547); experiment: HDAC1 enzyme inhibitory assay (HDAC-Glo I/II Assay kit); conditions: wells without enzyme = 100% inhibition, read-out: HDAC1 inhibitory rate (%) (1 μM)
T2 construct: transducing full length HDAC1 and HDAC6 genes into Sf-9 insect cells; GST; purchased SignalChem; host or cells: Sf-9 insect cells
Experimental: as §1, §2

HDAC9 enzyme = target: T3, HDAC9 enzyme (Homo sapiens, UniProt Q9UKV0); experiment: HDAC9 enzyme inhibitory assay (HDAC-Glo class IIa); conditions: wells without enzyme = 100% inhibition, read-out: HDAC9 inhibitory rate (%) (1 μM)
T3 construct: transducing full length HDAC9 gene into Sf-9 insect cells; made in house; host or cells: Sf-9 insect cells
Experimental: HDAC9 Enzyme Inhibitory Assay
Enzyme was prepared by transducing full length HDAC9 gene into Sf-9 insect cells and purifying by Ni-NTA affinity column, and HDAC9 enzyme inhibitory activity was evaluated. Enzymes were used after preserved at −70° C. HDAC9 enzyme inhibitory activity of the test compound was measured using HDAC-Glo class IIa (Promega) according to the following experimental method. The test compound diluted with assay buffer (24 mM Tris-HCl (pH 7.5), 1 mM MgCl2, 0.35 mM KCl, 135 mM NaCl, 0.6 mM Glutathione, 0.01% Tween-20) was added to a 384-well plate by each 2 μL. Then, HDAC9 enzyme solution diluted with assay buffer was added thereto by each 2 μL, and the plate was incubated at room temperature for 60 min. After incubated, HDAC substrate-Developer solution prepared according to Promega protocol was added to the 384-well plate by each 4 μL, and the enzyme reaction was started. After reacting at room temperature for 20 min, luminescence level was measured using plate reader Envision (PerkinElmer). The inhibitory activity of each compound was calculated as a relative activity value when luminescence level in wells without enzyme is considered as 100% inhibition.

T2 sequence (Q13547 whole entry): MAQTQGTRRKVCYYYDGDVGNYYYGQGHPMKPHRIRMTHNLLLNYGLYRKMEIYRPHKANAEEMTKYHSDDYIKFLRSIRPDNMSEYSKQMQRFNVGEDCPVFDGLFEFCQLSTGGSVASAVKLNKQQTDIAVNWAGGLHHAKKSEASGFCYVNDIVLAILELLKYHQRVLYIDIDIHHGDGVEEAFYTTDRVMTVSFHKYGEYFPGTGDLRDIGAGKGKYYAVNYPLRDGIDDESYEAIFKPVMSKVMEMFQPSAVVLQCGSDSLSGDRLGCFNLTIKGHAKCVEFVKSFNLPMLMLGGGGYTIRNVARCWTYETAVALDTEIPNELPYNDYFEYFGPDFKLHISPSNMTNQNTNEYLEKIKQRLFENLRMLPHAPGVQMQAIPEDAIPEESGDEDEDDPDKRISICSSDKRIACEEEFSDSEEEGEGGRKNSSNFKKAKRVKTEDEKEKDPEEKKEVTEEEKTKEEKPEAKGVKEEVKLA
T3 sequence (Q9UKV0 whole entry, species assumed): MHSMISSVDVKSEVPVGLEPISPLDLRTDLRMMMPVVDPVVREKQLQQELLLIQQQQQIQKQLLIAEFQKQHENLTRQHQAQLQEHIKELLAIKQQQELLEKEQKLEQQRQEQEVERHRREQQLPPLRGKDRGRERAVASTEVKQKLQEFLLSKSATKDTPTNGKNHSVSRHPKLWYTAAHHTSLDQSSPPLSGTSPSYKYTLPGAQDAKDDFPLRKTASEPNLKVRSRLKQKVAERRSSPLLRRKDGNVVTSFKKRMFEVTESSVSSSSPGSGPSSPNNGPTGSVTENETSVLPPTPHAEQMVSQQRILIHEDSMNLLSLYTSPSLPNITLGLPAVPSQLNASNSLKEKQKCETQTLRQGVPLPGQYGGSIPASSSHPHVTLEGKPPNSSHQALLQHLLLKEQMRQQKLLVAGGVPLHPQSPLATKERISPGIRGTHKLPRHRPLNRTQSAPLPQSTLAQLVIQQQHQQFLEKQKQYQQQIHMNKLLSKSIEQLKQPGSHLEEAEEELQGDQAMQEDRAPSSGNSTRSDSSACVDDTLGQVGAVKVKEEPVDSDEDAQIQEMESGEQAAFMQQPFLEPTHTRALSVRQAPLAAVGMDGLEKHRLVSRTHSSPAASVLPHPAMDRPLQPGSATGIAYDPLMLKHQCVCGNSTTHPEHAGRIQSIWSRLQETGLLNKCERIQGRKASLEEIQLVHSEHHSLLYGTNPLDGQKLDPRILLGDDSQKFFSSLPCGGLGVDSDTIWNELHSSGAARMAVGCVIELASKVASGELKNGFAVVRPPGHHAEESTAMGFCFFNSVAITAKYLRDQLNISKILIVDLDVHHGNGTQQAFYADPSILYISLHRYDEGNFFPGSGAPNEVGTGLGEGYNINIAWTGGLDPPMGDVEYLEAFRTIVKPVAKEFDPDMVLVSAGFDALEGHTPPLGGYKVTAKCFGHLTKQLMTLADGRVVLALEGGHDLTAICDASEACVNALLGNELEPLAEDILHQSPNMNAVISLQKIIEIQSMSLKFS

Row | SMILES | inhibition at 1 µM (HDAC6 enzyme) | inhibition at 1 µM (HDAC1 enzyme) | inhibition at 1 µM (HDAC9 enzyme)
1 | O=C(NCC1CCCCN1C(=O)Nc1ccc(-c2noc(C(F)(F)F)n2)cc1)c1ccc(Cl)cc1 (stereo not drawn) [Example 9, 2-(((4-chlorobenzoyl)amino)methyl)-N-(4-(5-(trifluoromethyl)-1,2,4-oxadiazol-3-yl)phenyl)piperidine-1-carboxamide] | 3% | 4% | 94%
2 | O=C(NCC1CCCCN1C(=O)Nc1ccc(-c2noc(C(F)(F)F)n2)cc1)c1csc(C(F)(F)F)n1 (stereo not drawn) [Example 60, N-(4-(5-(trifluoromethyl)-1,2,4-oxadiazol-3-yl)phenyl)-2-((((2-(trifluoromethyl)-1,3-thiazol-4-yl)carbonyl)amino)methyl)piperidine-1-carboxamide] | 1% | 20% | 72%
3 | O=C(NCC1CCCCN1C(=O)Nc1ccc(-c2noc(C(F)(F)F)n2)cc1)C1CCOCC1 (stereo not drawn) [Example 51, 2-(((tetrahydro-2H-pyran-4-ylcarbonyl)amino)methyl)-N-(4-(5-(trifluoromethyl)-1,2,4-oxadiazol-3-yl)phenyl)piperidine-1-carboxamide] | 8% | 73% | 97%
4 | O=C(NCC1CCCCN1C(=O)Nc1ccc(-c2noc(C(F)(F)F)n2)cc1)c1ccccc1C(F)(F)F (stereo not drawn) [Example 16, 2-(((2-(trifluoromethyl)benzoyl)amino)methyl)-N-(4-(5-(trifluoromethyl)-1,2,4-oxadiazol-3-yl)phenyl)piperidine-1-carboxamide] | 1% | -2% | 57%
5 | O=C(NCC1CCCCN1C(=O)Nc1ccc(-c2noc(C(F)(F)F)n2)cc1)c1ccc(F)cc1 (stereo not drawn) [Example 6, 2-(((4-fluorobenzoyl)amino)methyl)-N-(4-(5-(trifluoromethyl)-1,2,4-oxadiazol-3-yl)phenyl)piperidine-1-carboxamide] | 5% | 34% | 94%
6 | O=C(NCC1CCCCN1C(=O)Nc1ccc(-c2noc(C(F)(F)F)n2)cc1)c1ccccc1Cl (stereo not drawn) [Example 7, 2-(((2-chlorobenzoyl)amino)methyl)-N-(4-(5-(trifluoromethyl)-1,2,4-oxadiazol-3-yl)phenyl)piperidine-1-carboxamide] | 3% | -3% | 52%
7 | Cc1cc(C(=O)NCC2CCCCN2C(=O)Nc2ccc(-c3noc(C(F)(F)F)n3)cc2)ccn1 (stereo not drawn) [Example 57, 2-methyl-N-((1-((4-(5-(trifluoromethyl)-1,2,4-oxadiazol-3-yl)phenyl)carbamoyl)piperidin-2-yl)methyl)isonicotinamide] | 6% | 38% | 94%
8 | NC(=O)c1ccc(C(=O)NCC2CCCCN2C(=O)Nc2ccc(-c3noc(C(F)(F)F)n3)cc2)cc1 (stereo not drawn) [Example 22, N-((1-((4-(5-(trifluoromethyl)-1,2,4-oxadiazol-3-yl)phenyl)carbamoyl)piperidin-2-yl)methyl)terephthalamide] | 2% | 6% | 90%
9 | O=C(NCC1CCCCN1C(=O)Nc1ccc(-c2noc(C(F)(F)F)n2)cc1)c1cc[n+]([O-])cc1 (stereo not drawn) [Example 37, N-((1-((4-(5-(trifluoromethyl)-1,2,4-oxadiazol-3-yl)phenyl)carbamoyl)piperidin-2-yl)methyl)isonicotinamide 1-oxide] | 2% | 2% | 88%

Further lines, results first:

Row | inhibition at 1 µM (HDAC6 enzyme) | inhibition at 1 µM (HDAC1 enzyme) | inhibition at 1 µM (HDAC9 enzyme) | SMILES
10 | 2% | 42% | 94% | O=C(NCC1CCCCN1C(=O)Nc1ccc(-c2noc(C(F)(F)F)n2)cc1)c1cccc(O)c1 (stereo not drawn) [Example 26, 2-(((3-hydroxybenzoyl)amino)methyl)-N-(4-(5-(trifluoromethyl)-1,2,4-oxadiazol-3-yl)phenyl)piperidine-1-carboxamide]
11 | 5% | 47% | 90% | Cn1ccnc1C(=O)NCC1CCCCN1C(=O)Nc1ccc(-c2noc(C(F)(F)F)n2)cc1 (stereo not drawn) [Example 39, 2-((((1-methyl-1H-imidazol-2-yl)carbonyl)amino)methyl)-N-(4-(5-(trifluoromethyl)-1,2,4-oxadiazol-3-yl)phenyl)piperidine-1-carboxamide]
12 | 6% | 27% | 80% | CN1CCC(C(=O)NCC2CCCCN2C(=O)Nc2ccc(-c3noc(C(F)(F)F)n3)cc2)CC1 (stereo not drawn) [Example 52, 2-((((1-methylpiperidin-4-yl)carbonyl)amino)methyl)-N-(4-(5-(trifluoromethyl)-1,2,4-oxadiazol-3-yl)phenyl)piperidine-1-carboxamide]
13 | 7% | 59% | 98% | Cn1nccc1C(=O)NCC1CCCCN1C(=O)Nc1ccc(-c2noc(C(F)(F)F)n2)cc1 (stereo not drawn) [Example 41, 2-((((1-methyl-1H-pyrazol-5-yl)carbonyl)amino)methyl)-N-(4-(5-(trifluoromethyl)-1,2,4-oxadiazol-3-yl)phenyl)piperidine-1-carboxamide]
14 | 2% | 4% | 86% | CN(C)c1cccc(C(=O)NCC2CCCCN2C(=O)Nc2ccc(-c3noc(C(F)(F)F)n3)cc2)c1 (stereo not drawn) [Example 28, 2-(((3-(dimethylamino)benzoyl)amino)methyl)-N-(4-(5-(trifluoromethyl)-1,2,4-oxadiazol-3-yl)phenyl)piperidine-1-carboxamide]
15 | 1% | 3% | 79% | O=C(NCC1CCCCN1C(=O)Nc1ccc(-c2noc(C(F)(F)F)n2)cc1)c1cc2ccccc2o1 (stereo not drawn) [Example 44, 2-(((1-benzofuran-2-ylcarbonyl)amino)methyl)-N-(4-(5-(trifluoromethyl)-1,2,4-oxadiazol-3-yl)phenyl)piperidine-1-carboxamide]
16 | 7% | 75% | 92% | O=C(NCC1CCCCN1C(=O)Nc1ccc(-c2noc(C(F)(F)F)n2)cc1)C1CC1 (stereo not drawn) [Example 49, 2-(((cyclopropylcarbonyl)amino)methyl)-N-(4-(5-(trifluoromethyl)-1,2,4-oxadiazol-3-yl)phenyl)piperidine-1-carboxamide]
